According to US7462598B2, “Antimicrobial theta defensins, analogs thereof, and methods of use” (priority 2002, dated 2008):
Bridge positions count the residues as written; N and C are the ends. Square brackets hold non-standard residues; d marks the D form. Peptide text beside a SMILES is read from it. hSer = N[C@@H](CCO)C(=O)O

Legend:
[1] = molecular target: T1, recombinant β-galactosidase (Escherichia coli, UniProt P00722); test: Inhibition of purified β-galactosidase (ONPG hydrolysis); format: biochemical
T1 construct: gift from Dr. Donald P. Satchell, University of California, Irvine, Department of Pathology
T1 sequence (P00722 2-1024): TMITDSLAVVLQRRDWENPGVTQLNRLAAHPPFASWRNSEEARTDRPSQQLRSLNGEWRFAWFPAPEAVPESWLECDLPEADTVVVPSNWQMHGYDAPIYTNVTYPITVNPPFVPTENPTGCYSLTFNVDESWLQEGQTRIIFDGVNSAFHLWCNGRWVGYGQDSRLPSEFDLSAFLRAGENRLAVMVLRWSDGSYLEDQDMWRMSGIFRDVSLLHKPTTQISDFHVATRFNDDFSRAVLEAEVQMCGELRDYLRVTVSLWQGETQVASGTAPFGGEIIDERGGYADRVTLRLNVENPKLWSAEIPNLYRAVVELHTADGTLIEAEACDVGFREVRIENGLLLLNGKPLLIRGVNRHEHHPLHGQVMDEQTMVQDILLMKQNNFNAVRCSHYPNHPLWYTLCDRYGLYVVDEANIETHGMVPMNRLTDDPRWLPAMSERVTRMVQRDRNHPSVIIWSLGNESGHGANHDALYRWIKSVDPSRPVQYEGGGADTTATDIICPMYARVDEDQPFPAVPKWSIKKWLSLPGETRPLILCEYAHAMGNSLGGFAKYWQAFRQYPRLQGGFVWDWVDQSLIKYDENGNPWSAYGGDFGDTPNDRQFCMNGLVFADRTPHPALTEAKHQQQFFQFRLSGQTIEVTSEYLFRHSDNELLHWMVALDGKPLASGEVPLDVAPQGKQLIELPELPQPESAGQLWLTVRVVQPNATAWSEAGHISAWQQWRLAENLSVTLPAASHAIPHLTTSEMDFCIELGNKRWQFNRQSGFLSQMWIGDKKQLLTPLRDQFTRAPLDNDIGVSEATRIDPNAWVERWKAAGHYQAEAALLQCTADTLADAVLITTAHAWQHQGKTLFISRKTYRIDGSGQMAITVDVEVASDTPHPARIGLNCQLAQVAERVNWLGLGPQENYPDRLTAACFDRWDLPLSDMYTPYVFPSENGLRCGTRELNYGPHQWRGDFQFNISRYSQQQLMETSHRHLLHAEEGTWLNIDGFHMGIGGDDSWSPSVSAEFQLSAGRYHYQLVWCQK
Procedure: Dose-dependent rates of ONPG hydrolysis were determined using 10 nM of purified β-galactosidase.
The effect of each peptide on β-galactosidase-dependent ONPG hydrolysis was determined by incubating 0-4 μg/ml of each peptide with recombinant β-galactosidase (a gift from Dr. Donald P. Satchell, University of California, Irvine, Department of Pathology) and 3 mM ONPG as described above.

[2] = test system: C. albicans 16820; test: Cell-suspension microbicidal assay (MMC); format: cell-based, Candida albicans; conditions: for MMC, C. albicans: lowest concentration that reduced cell viability by 99.9%, 10 mM PIPES, 5 mM glucose, pH 7.4, 2 h 37° C.
In short: (§1)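 Log-phase microbes (2×10^6 CFU/ml) exposed to two-fold peptide dilutions (0.062-8.0 μg/ml) in 10 mM PIPES, 5 mM glucose, pH 7.4, 2 h at 37 °C, then diluted 1:10 to 1:10^6 in broth and grown 24-48 h. MMC is the lowest concentration giving ≥99.9% killing (no pellet at 1:10^3).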

[3] = test system: E. coli ML35; test: Membrane permeabilization assay (ONPG hydrolysis); format: cell-based, Escherichia coli; conditions: for ONPG hydrolysis: rates at 1 μg/ml concentration of each peptide
In short: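 ONPG hydrolysis by log-phase E. coli ML35 (1×10^6 CFU/ml) in 10 mM PIPES pH 7.4 with 3 mM ONPG, peptides at 0-8.0 μg/ml final; A405 followed for 60 min. Control: 0-4 μg/ml peptide incubated with recombinant β-galactosidase and 3 mM ONPG.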

[4] = test system: S. aureus 502a; test: Cell-suspension microbicidal assay (MMC); format: cell-based, Staphylococcus aureus; conditions: for MMC, S. aureus: lowest concentration that reduced cell viability by 99.9%, 10 mM PIPES, 5 mM glucose, pH 7.4, 2 h 37° C.
In short: as §1

[5] = test system: E. coli ML35; test: Cell-suspension microbicidal assay (MMC); format: cell-based, Escherichia coli; conditions: for MMC, E. coli: lowest concentration that reduced cell viability by 99.9%, 10 mM PIPES, 5 mM glucose, pH 7.4, 2 h 37° C.
In short: as §1

[6] = test system: S. aureus 502a, E. coli ML35, and C. albicans 16820; test: Cell-suspension microbicidal assay, statements across the test organisms (lowest MMC, overall ranges); format: cell-based; conditions: for M: peptide concentration that kill 99.9% of either S. aureus, E. coli, or C. albicans, lowest MMC value
In short: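 Log-phase organisms (2×10^6 CFU/ml) were exposed for 2 h at 37° C. to peptide (0.062–8.0 μg/ml final) in 10 mM PIPES/5 mM glucose, pH 7.4, then serially diluted in broth and grown 24–48 h. MMC was defined as ≥99.9% killing (no pellet at 1:10^3). SI was calculated as concentration giving 3% hemolysis in PBS divided by lowest MMC.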

[7] = test system: S. aureus 502a; format: cell-based, Staphylococcus aureus; conditions: 502a
Procedure: Dose-dependent staphylocidal activity of each peptide was determined in assays containing 10% normal human serum. Percentages of killing are relative to activities of peptide-containing incubations in which serum was omitted.
(§2) To determine the effects of serum, salt, calcium chloride and magnesium chloride on microbicidal activities, peptide activities were determined in assays containing varying ionic strength, divalent cations, and serum. The effect of serum on staphylocidal activity of each peptide was determined by incubating 1×10^6 CFU/ml of S. aureus 502a with increasing peptide concentrations (0.5-4 μg/ml) in 10 mM PIPES, pH 7.4, containing 10% normal human serum for 2 h at 37° C. The effect of sodium chloride on staphylocidal activities was assessed with 5 μg/ml of each peptide in 10 mM PIPES, pH 7.4, containing varying concentrations of sodium chloride (0-160 mM). Effects of divalent cations, CaCl2, or MgCl2 (0-5.6 mM) were assessed in microbicidal assays against E. coli ML35. Bactericidal activities were determined by colony counting (see Example II), and microbicidal potencies were expressed as percent killing as follows:
(§3) [formula] where A=surviving bacteria (CFU/ml) after initial incubation with each peptide in buffer containing serum, salt, or divalent cations and Ao=bacterial CFU/ml in the “no-peptide” controls.

[8] = test system: E. coli ML35; test: Bactericidal activity in divalent cations (CaCl2, MgCl2); format: cell-based, Escherichia coli
Procedure: as §2, §3

[9] = test system: S. aureus 502a, E. coli ML35, C. albicans 16820, and C. neoformans 271a; test: Agar diffusion assay, statements across the test organisms; format: cell-based; conditions: against E. coli, FIG. 18A-D
Procedure: Briefly, 10-μl wells were bored in a 9-cm^2 plate of agarose, buffered with 10 mM 1,4-piperazinebis(ethanesulfonic acid) (PIPES), pH 7.4, containing 5 mM glucose, and seeded with 1×10^6 mid-log phase cells. Five-μl aliquots of peptides, dissolved in 0.01% HOAc at 10-300 μg/ml, were added to each well. After incubation at 37° C. for 2 h, the seeded agar was overlaid with molten agarose containing 6% trypticase soy broth (for bacteria) or Sabouraud dextrose broth (for fungi). Plates were incubated at 37° C. for 18-24 h, and antimicrobial activity was determined by measuring the diameter of clearing around each well.

[10] = test system: S. aureus 502a; format: cell-based, Staphylococcus aureus; conditions: physiologic salt / various concentrations of salt; FIG. 6
Procedure: The activity of each peptide (5 μg/ml) was determined in assays containing increasing concentrations of sodium chloride. Staphylocidal activities were expressed as percentages of killing obtained in the absence of additional NaCl.
as §2, §3

SMILES	MMC, C. albicans [2]	ONPG hydrolysis [3]	MMC, S. aureus [4]	MMC, E. coli [5]	M [6]	antimicrobial activity compared with synthetic / native RTD-1 [9]	also measured
CC(C)[C@@H]1NC(=O)[C@@H]2CSSC[C@H](NC(=O)[C@H](CCCNC(=N)N)NC(=O)[C@@H](NC(=O)CNC(=O)CN)CSSC[C@@H](C(=O)N[C@@H](CCCNC(=N)N)C(=O)N[C@@H](CCCNC(=N)N)C(N)=O)NC1=O)C(=O)N[C@@H](Cc1ccc(O)cc1)C(=O)N[C@H]1CSSC[C@H](NC(=O)[C@H](Cc3ccccc3)NC(=O)[C@H](CCCNC(=N)N)NC(=O)[C@H](CCCNC(=N)N)NC(=O)[C@H](CCCNC(=N)N)NC1=O)C(=O)N[C@@H](C(C)C)C(=O)N2 [3cys 2:2 PG-1-NH] (H-GGCRCYCRRRFCVCVCRR-NH2; disulfide 3-16, 5-14, 7-12; N-terminus assumed)	1.5 µg/mL	15.3 (A405/sec) · 10^−5	0.3 µg/mL	1.0 µg/mL	0.25 µg/mL		inhibition of β-galactosidase activity ([1]; peptide 0-4 μg/ml, concentration not given, FIG. 10): potent inhibitor; fold higher activity against C. albicans than 3cys 3:1 PG-1-NH ([2]; from MMC, Table 2): 2-3 fold; fold higher activity against S. aureus than 3cys 3:1 PG-1-NH ([4]; from MMC, Table 2): 6-7 fold
CC(C)C[C@H](NC(=O)[C@@H]1CSSC[C@H](NC(=O)[C@H](CCCNC(=N)N)NC(=O)[C@H](C)NC(=O)[C@@H](NC(=O)CNC(=O)[C@@H](N)CCCNC(=N)N)C(C)C)C(=O)N[C@@H](CC(C)C)C(=O)N[C@H]2CSSC[C@H](NC(=O)[C@H](C(C)C)NC(=O)CNC(=O)[C@H](CCCNC(=N)N)NC(=O)[C@H](CCCNC(=N)N)NC2=O)C(=O)N[C@@H](CCCNC(=N)N)C(=O)N1)C(=O)N[C@@H](C)C(=O)N[C@@H](CCCNC(=N)N)C(N)=O [5:3 aRTD-3-NH] (H-RGVARCLCRRGVCRCLAR-NH2; disulfide 6-15, 8-13; N-terminus assumed)	2.3 µg/mL	3.9 (A405/sec) · 10^−5	1.0 µg/mL		1 µg/mL		fold lower activity against C. albicans than RTD-3 and PG-1 ([2]; from MMC, Table 2): 2-3 fold; fold lower activity against E. coli than RTD-3 and PG-1 ([5]; from MMC, Table 2): 2-3 fold; inhibition of bactericidal activity in serum [7]: 20-50%; effect of divalent cations on bactericidal activity (in words) ([8]; various concentrations of divalent cations): completely inhibited
CC[C@H](C)[C@@H]1NC(=O)[C@@H]2CSSC[C@H](NC(=O)[C@H](CCCNC(=N)N)NC(=O)[C@@H]3CSSC[C@H](NC1=O)C(=O)N[C@@H]([C@@H](C)O)C(=O)N[C@@H](CCCNC(=N)N)C(=O)NCC(=O)N[C@@H](Cc1ccccc1)C(=O)N3)C(=O)N[C@@H]([C@@H](C)CC)C(=O)N[C@H]1CSSC[C@H](NC(=O)[C@H](Cc3ccccc3)NC(=O)CNC(=O)[C@H](CCCNC(=N)N)NC(=O)[C@H]([C@@H](C)O)NC1=O)C(=O)N[C@@H](CCCNC(=N)N)C(=O)N2 [RTD-2] (cyclo(CICTRGFCRCICTRGFCR); disulfide 1-10, 3-8, 12-17)	3.0 µg/mL	6.3 (A405/sec) · 10^−5	1.5 µg/mL	2.3 µg/mL	1.5 µg/mL		reduction of the rate of ONPG hydrolysis by purified β-galactosidase ([1]; 2 μg/ml, relative to incubations without peptide): 80%; reduction of the rate of ONPG hydrolysis on addition of RTD-2 ([3]; RTD-2 1.0 μg/ml final added after 30 min to E. coli permeabilized with 1 μg/ml RTD-1, FIG. 11B): approximately 30%
CC[C@H](C)[C@@H]1NC(=O)[C@@H]2CSSC[C@H](NC(=O)[C@H](CCCNC(=N)N)NC(=O)[C@@H](NC(=O)[C@H](Cc3ccccc3)NC(=O)CN)CSSC[C@@H](C(=O)N[C@H](C(=O)N[C@@H](CCCNC(=N)N)C(=O)N[C@@H](CCO)C(=O)O)[C@@H](C)O)NC1=O)C(=O)N[C@@H](CC(C)C)C(=O)N[C@H]1CSSC[C@H](NC(=O)[C@H](C(C)C)NC(=O)CNC(=O)[C@H](CCCNC(=N)N)NC(=O)[C@H](CCCNC(=N)N)NC1=O)C(=O)N[C@@H](CCCNC(=N)N)C(=O)N2 [aRTD-1-Hse] (H-GFCRCLCRRGVCRCICTR[hSer]-OH; disulfide 3-16, 5-14, 7-12 (inferred); N-terminus and C-terminus assumed)						more antimicrobial than native RTD-1	
CC[C@H](C)[C@@H]1NC(=O)[C@@H]2CSSC[C@H](NC(=O)[C@H](CCCNC(=N)N)NC(=O)[C@@H](NC(=O)[C@H](Cc3ccccc3)NC(=O)CN)CSSC[C@@H](C(=O)N[C@H](C(=O)N[C@@H](CCCNC(=N)N)C(=O)O)[C@@H](C)O)NC1=O)C(=O)N[C@@H]([C@@H](C)CC)C(=O)N[C@H]1CSSC[C@H](NC(=O)[C@H](Cc3ccccc3)NC(=O)CNC(=O)[C@H](CCCNC(=N)N)NC(=O)[C@H]([C@@H](C)O)NC1=O)C(=O)N[C@@H](CCCNC(=N)N)C(=O)N2 [aRTD-2-OH] (H-GFCRCICTRGFCRCICTR-OH; disulfide 3-16, 5-14, 7-12; N-terminus assumed)	3.0 µg/mL	4.3 (A405/sec) · 10^−5	1.5 µg/mL		1.5 µg/mL		fold reduction of potency against E. coli versus native cyclic peptide ([5]; versus RTD-2): at least 3 fold; inhibition of bactericidal activity by calcium chloride ([8]; physiologic concentration of calcium chloride (1.4 mM)): completely ablated; 99.9% kill against one of the bacterial organisms ([6]; at 8 μg/ml, the highest concentration tested): did not achieve a 99.9% kill; effect of salt on microbicidal activity (in words) [10]: most inhibited
CC[C@H](C)[C@@H]1NC(=O)[C@@H]2CSSC[C@H](NC(=O)[C@H](CCCNC(=N)N)NC(=O)[C@@H]3CSSC[C@H](NC1=O)C(=O)N[C@@H]([C@@H](C)O)C(=O)N[C@@H](CCCNC(=N)N)C(=O)NCC(=O)N[C@@H](Cc1ccccc1)C(=O)N3)C(=O)N[C@@H](CC(C)C)C(=O)N[C@H]1CSSC[C@H](NC(=O)[C@H](C(C)C)NC(=O)CNC(=O)[C@H](CCCNC(=N)N)NC(=O)[C@H](CCCNC(=N)N)NC1=O)C(=O)N[C@@H](CCCNC(=N)N)C(=O)N2 [recombinant RTD-1] (cyclo(GFCRCLCRRGVCRCICTR); disulfide 3-16, 5-14, 7-12)						virtually indistinguishable	
